Key:
Cotton (CT) [1] = assay: Post-emergence herbicide test; assay type: in vivo, Gossypium hirsutum var. DPL smooth leaf; details: Gossypium hirsutum, post-emergence, 336 h, two weeks after treatment; for pest or weed control at 2241.7 g/ha: 2 lb/acre; for pest or weed control at 4483.4 g/ha: 4 lb/acre
Method: (§1) Cotton (CT)--Gossypium hirsutum var. DPL smooth leaf
(§2) All crop and weed species were planted individually in 3' plastic pots containing potting soil. Four seeds each of corn, cotton, and snapbeans were seeded to a depth equal to the diameter of the seed. All other species were surface seeded and sprinkled with screened soil in an amount sufficient to cover the seed. Immediately after planting, all pots were watered by sub-irrigation in greenhouse trays. Pots for the pre-emergence phase were seeded one day before treatment.
(§3) Planting dates for the post-emergence phase were varied so that all seedlings would reach the desired stage of development simultaneously. The proper stage of seedling development for treatment in the post-emergence phase is as follows:
Cotton: first true leaf 1' in length; expanded cotyledons.
(§4) Spray hood constants required to deliver the above volume are as follows:
(§5) Formulations for spray applications were prepared in 50 ml volumes with the following three components:
(§6) Formulations for the 4 lbs/acre rate were prepared by adjusting the amount of active ingredient accordingly.
(§7) Spray applications were made in a hood containing a removable belt and fixed spray nozzle. For passage through the spray hood, one pot of each specie (pre-emergence phase) was placed on the rear half of the flat. Treatments were removed to the greenhouse after spraying. Watering during the observation period was done only by sub-irrigation.
(§8) Two weeks after treatment, pre- and post-emergence injury or control was visually rated, and the results were as shown in the following tables. Pre-emergence data are provided in TABLE III and post-emergence data are provided in TABLE IV, for compounds having the formula illustrated in TABLE I. Correspondingly, pre-emergence and post-emergence data, respectively, are set forth in TABLES V AND VI, for compounds having the formula illustrated in TABLE II.

Barnyard grass (BG) [2] = assay: Post-emergence herbicide test; assay type: in vivo; details: Echinochloa crus-galli, 336 h, two weeks after treatment; for pest or weed control at 2241.7 g/ha: 2 lb/acre; for pest or weed control at 4483.4 g/ha: 4 lb/acre
Method: (§9) Barnyard grass (BG)--Echinochloa crus-galli
as §2, §3
(§10) Compounds were tested at rates of application equivalent to 8 lbs. of actual compound per acre in a spray volume of 38 gallons per acre. Spray hood constants required to deliver the above volume are as follows:
as §5, §6, §7, §8

Bean (BN) [3] = assay: Post-emergence herbicide test; assay type: in vivo, Phaseolus vulgaris var. Black Valentine; details: Phaseolus vulgaris, post-emergence, 336 h, two weeks after treatment; for pest or weed control at 2241.7 g/ha: 2 lb/acre; for pest or weed control at 4483.4 g/ha: 4 lb/acre
Method: (§11) Bean (BN)--Phaseolus vulgaris var. Black Valentine
as §2, §3
Beans: primary leaves expanded, growing point at primary leaf nodes.
as §4, §5, §6, §7, §8

Corn (CN) [4] = assay: Post-emergence herbicide test; assay type: in vivo; details: Zea mays, 336 h, two weeks after treatment; for pest or weed control: 2 lb/acre; for pest or weed control at 4483.4 g/ha: 4 lb/acre
Method: as §2, §3, §10, §5, §6, §7, §8

Crabgrass (CG) [5] = assay: Post-emergence herbicide test; assay type: in vivo, Digitaria sanquinalis; details: Digitaria sanguinalis, post-emergence, 336 h, two weeks after treatment; for pest or weed control: 2 lb/acre; for pest or weed control at 4483.4 g/ha: 4 lb/acre
Method: (§12) Crabgrass (CG)--Digitaria sanquinalis
as §2, §3, §4
(§13) Formulations for spray applications were prepared in 50 ml volumes with the following three components: […]
as §7, §8

Johnson grass (JG) [6] = assay: Post-emergence herbicide test; assay type: in vivo, Sorgum helepense; details: Sorghum halepense, 336 h, two weeks after treatment; for pest or weed control: 2 lb/acre; for pest or weed control at 4483.4 g/ha: 4 lb/acre
Method: (§14) Johnson grass (JG)--Sorgum helepense
as §2, §3, §10, §5, §6, §7, §8

Turnip (TP) [7] = assay: Post-emergence herbicide test; assay type: in vivo, Brassica sp.; details: Brassica rapa, post-emergence, 336 h, two weeks after treatment; for pest or weed control at 2241.7 g/ha: 2 lb/acre; for pest or weed control at 4483.4 g/ha: 4 lb/acre
Method: (§15) Turnip (TP)--Brassica sp.
as §2, §3
(§16) Pigweed and turnips: 1 or 2 true leaves above visible cotyledons.
as §4, §13, §7, §8

Amaranth pigweed (PW) = assay: Post-emergence herbicide test; assay type: in vivo, Amaranthus retroflexus; details: 336 h, two weeks after treatment
Method: Amaranth pigweed (PW)--Amaranthus retroflexus
as §2, §3, §16, §10, §5, §6, §7, §8

Crabgrass (CG) [8] = assay: Pre-emergence herbicide test; assay type: in vivo, Digitaria sanquinalis; details: Digitaria sanguinalis, pre-emergence, 336 h, two weeks after treatment; for pest or weed control: 2 lb/acre; for pest or weed control at 4483.4 g/ha: 4 lb/acre
Method: as §12, §2, §4, §13, §7, §8

Turnip (TP) [9] = assay: Pre-emergence herbicide test; assay type: in vivo, Brassica sp.; details: Brassica rapa, pre-emergence, 336 h, two weeks after treatment; for pest or weed control at 2241.7 g/ha: 2 lb/acre; for pest or weed control at 4483.4 g/ha: 4 lb/acre
Method: as §15, §2, §4, §13, §7, §8

Bean (BN) [10] = assay: Pre-emergence herbicide test; assay type: in vivo, Phaseolus vulgaris var. Black Valentine; details: Phaseolus vulgaris, 336 h, two weeks after treatment; for pest or weed control at 2241.7 g/ha: 2 lb/acre; for pest or weed control at 4483.4 g/ha: 4 lb/acre
Method: as §11, §2, §10, §5, §6, §7, §8

Corn (CN) [11] = assay: Pre-emergence herbicide test; assay type: in vivo; details: Zea mays, 336 h, two weeks after treatment; for pest or weed control at 2241.7 g/ha: 2 lb/acre; for pest or weed control at 4483.4 g/ha: 4 lb/acre
Method: as §2, §10, §5, §6, §7, §8

Johnson grass (JG) [12] = assay: Pre-emergence herbicide test; assay type: in vivo, Sorgum helepense; details: Sorghum halepense, 336 h, two weeks after treatment; for pest or weed control at 2241.7 g/ha: 2 lb/acre; for pest or weed control at 4483.4 g/ha: 4 lb/acre
Method: as §14, §2, §10, §5, §6, §7, §8

Cotton (CT) [13] = assay: Pre-emergence herbicide test; assay type: in vivo, Gossypium hirsutum var. DPL smooth leaf; details: Gossypium hirsutum, 336 h, two weeks after treatment; for pest or weed control at 2241.7 g/ha: 2 lb/acre; for pest or weed control at 4483.4 g/ha: 4 lb/acre
Method: as §1, §2, §10, §5, §6, §7, §8

Barnyard grass (BG) [14] = assay: Pre-emergence herbicide test; assay type: in vivo; details: Echinochloa crus-galli, 336 h, two weeks after treatment; for pest or weed control at 2241.7 g/ha: 2 lb/acre; for pest or weed control at 4483.4 g/ha: 4 lb/acre
Method: as §9, §2, §10, §5, §6, §7, §8

Row | Compound | pest or weed control at 2241.7 g/ha (Cotton (CT) [1]) | pest or weed control at 4483.4 g/ha (Cotton (CT) [1]) | pest or weed control at 4483.4 g/ha (Barnyard grass (BG) [2]) | pest or weed control at 2241.7 g/ha (Bean (BN) [3]) | pest or weed control at 4483.4 g/ha (Bean (BN) [3]) | pest or weed control (Corn (CN) [4]) | pest or weed control at 4483.4 g/ha (Corn (CN) [4]) | pest or weed control (Crabgrass (CG) [5]) | pest or weed control at 4483.4 g/ha (Crabgrass (CG) [5]) | pest or weed control at 4483.4 g/ha (Johnson grass (JG) [6]) | pest or weed control at 2241.7 g/ha (Turnip (TP) [7]) | pest or weed control at 4483.4 g/ha (Turnip (TP) [7]) | pest or weed control (Crabgrass (CG) [8]) | pest or weed control at 4483.4 g/ha (Crabgrass (CG) [8]) | pest or weed control at 2241.7 g/ha (Turnip (TP) [9]) | pest or weed control at 4483.4 g/ha (Turnip (TP) [9]) | pest or weed control at 2241.7 g/ha (Bean (BN) [10]) | pest or weed control at 4483.4 g/ha (Bean (BN) [10]) | pest or weed control at 2241.7 g/ha (Corn (CN) [11]) | pest or weed control at 4483.4 g/ha (Corn (CN) [11]) | other results
1 | CNC(=O)Nc1nnc(SCCCCl)s1 [Example 61] | 100% | 100% | 70% | 100% | 100% | 40% | 30% | 20% | 90% | 60% | 100% | 80% | – | – | – | – | – | – | – | – | pest or weed control at 2241.7 g/ha (Barnyard grass (BG) [2]): 40%; pest or weed control (Johnson grass (JG) [6]): 20%; pest or weed control at 2241.7 g/ha (Amaranth pigweed (PW); 2 lb/acre): 90%; pest or weed control at 4483.4 g/ha (Amaranth pigweed (PW); 4 lb/acre): 90%
2 | CCCS(=O)(=O)c1nnc(NC(=O)NC)s1 [Example 62] | 90% | 100% | 80% | 100% | 100% | 100% | 50% | 100% | 100% | 100% | 100% | 100% | 90% | 90% | 80% | 40% | 60% | 50% | 0% | 0% | pest or weed control at 2241.7 g/ha (Johnson grass (JG) [12]): 40%; pest or weed control at 4483.4 g/ha (Johnson grass (JG) [12]): 40%; pest or weed control at 2241.7 g/ha (Cotton (CT) [13]): 100%; pest or weed control at 4483.4 g/ha (Cotton (CT) [13]): 100%; pest or weed control at 2241.7 g/ha (Barnyard grass (BG) [14]): 60%; pest or weed control at 4483.4 g/ha (Barnyard grass (BG) [14]): 60%
3 | CNC(=O)Nc1nnc(-c2cccc(C(F)(F)F)c2)s1 [Example 73] | – | 50% | 40% | – | 40% | – | 30% | – | 30% | 50% | – | 60% | – | 0% | – | 60% | – | 80% | – | 50% | pest or weed control at 4483.4 g/ha (Johnson grass (JG) [12]): 0%; pest or weed control at 4483.4 g/ha (Cotton (CT) [13]): 100%; pest or weed control at 4483.4 g/ha (Barnyard grass (BG) [14]): 0%
4 | CCSCCSc1nnc(NC(=O)NC)s1 [Example 80] | – | – | – | – | – | – | – | – | – | – | – | – | – | – | – | – | – | – | – | – | pest or weed control at 8966.8 g/ha (Cotton (CT) [1]; 8 lb/acre): 80%; pest or weed control at 8966.8 g/ha (Barnyard grass (BG) [2]; 8 lb/acre): 50%; pest or weed control at 8966.8 g/ha (Crabgrass (CG) [8]; 8 lb/acre): 50%; pest or weed control at 8966.8 g/ha (Turnip (TP) [9]; 8 lb/acre): 0%; pest or weed control at 8966.8 g/ha (Bean (BN) [10]; 8 lb/acre): 100%; pest or weed control at 8966.8 g/ha (Corn (CN) [11]; 8 lb/acre): 0%; pest or weed control at 8966.8 g/ha (Bean (BN) [3]; 8 lb/acre): 100%; pest or weed control at 8966.8 g/ha (Corn (CN) [4]; 8 lb/acre): 0%; pest or weed control at 8966.8 g/ha (Johnson grass (JG) [12]; 8 lb/acre): 20%; pest or weed control at 8966.8 g/ha (Crabgrass (CG) [5]; 8 lb/acre): 90%; pest or weed control at 8966.8 g/ha (Johnson grass (JG) [6]; 8 lb/acre): 60%; pest or weed control at 8966.8 g/ha (Cotton (CT) [13]; 8 lb/acre): 50%; pest or weed control at 8966.8 g/ha (Barnyard grass (BG) [14]; 8 lb/acre): 20%; pest or weed control at 8966.8 g/ha (Turnip (TP) [7]; 8 lb/acre): 100%
5 | C=CCSc1nnc(NC(=O)NC)s1 [Example 39, 1-Methyl-3-[5-Allythio-2-(1,3,4-Thiadiazolyl)] Urea] | 100% | – | – | 100% | – | 50% | – | 80% | – | – | 80% | – | 60% | – | 70% | – | 40% | – | 10% | – | pest or weed control at 2241.7 g/ha (Barnyard grass (BG) [2]): 90%; pest or weed control at 2241.7 g/ha (Johnson grass (JG) [12]): 30%; pest or weed control (Johnson grass (JG) [6]): 80%; pest or weed control at 2241.7 g/ha (Cotton (CT) [13]): 50%; pest or weed control at 2241.7 g/ha (Barnyard grass (BG) [14]): 50%
6 | CCS(=O)(=O)c1nnc(NC(=O)NC)s1 [Example 81] | 90% | 100% | 80% | 100% | 100% | 100% | 50% | 100% | 100% | 100% | 100% | 100% | 90% | 90% | 80% | 80% | 60% | 60% | 0% | 0% | pest or weed control at 2241.7 g/ha (Johnson grass (JG) [12]): 40%; pest or weed control at 4483.4 g/ha (Johnson grass (JG) [12]): 40%; pest or weed control at 2241.7 g/ha (Cotton (CT) [13]): 100%; pest or weed control at 4483.4 g/ha (Cotton (CT) [13]): 100%; pest or weed control at 2241.7 g/ha (Barnyard grass (BG) [14]): 60%; pest or weed control at 4483.4 g/ha (Barnyard grass (BG) [14]): 60%

From patent US4175081A, “5-Substituted thiadiazole ureas” (priority 1977, dated 1979)
